Assays:
[1] = logP determination by HPLC on a reversed-phase column (C18), EEC Directive 79/831 Annex V.A8; format: physicochemical; details: HPLC on reversed-phase column (C18), acetonitrile/water with formic acid, EEC Directive 79/831 Annex V.A8
Method: (§1) ^a) Note regarding the determination of the logP values and mass detection: The determination of the given logP values was carried out in accordance with EEC Directive 79/831 Annex V.A8 by HPLC (High Performance Liquid Chromatography) on a reversed-phase column (C18). Agilent 1100 LC system; 50*4.6 Zorbax Eclipse Plus C18 1.8 micron; mobile phase A: acetonitrile (0.1% formic acid); mobile phase B: water (0.09% formic acid); linear gradient from 10% acetonitrile to 95% acetonitrile in 4.25 min, then 95% acetonitrile for a further 1.25 min; oven temperature 55° C.; flow rate: 2.0 ml/min. Mass detection is carried out via an Agilend MSD system.
as §1, with “^*)” for “^a)”

[2] = system: larvae of the mustard beetle (Phaedon cochleariae); assay: Phaedon cochleariae spray test (PHAECO); format: in vivo; details: Chinese cabbage leaf discs, after 7 days
Method: H. Phaedon cochleariae-spray Test (PHAECO)
Solvents: 78.0 parts by weight of acetone
• 1.5 parts by weight of dimethylformamide Emulsifier: alkylaryl polyglycol ether
To produce a suitable preparation of active compound, 1 part by weight of active compound is dissolved using the stated parts by weight of solvent and made up with water comprising an emulsifier concentration of 1000 ppm until the desired concentration is reached. To produce further test concentrations, the preparation is diluted with emulsifier-containing water.
After 7 days, the efficacy in % is determined. 100% means that all of the beetle larvae have been killed; 0% means that none of the beetle larvae have been killed.

[3] = system: adult cat fleas (Ctenocephalides felis); assay: Ctenocephalides felis in vitro contact test with adult cat fleas (T1); details: after 48 h
Method: T1. Ctenocephalides felis—in vitro Contact Tests with Adult Cat Fleas
For the coating of the test tubes, initially 9 mg of active compound are dissolved in 1 ml of acetone p.a. and then diluted with acetone p.a. to the desired concentration. By turning and rocking on an orbital shaker (2 h of rocking rotation at 30 rpm), 250 μl of the solution are distributed homogeneously on the internal walls and the floor of a 25 ml test tube. At 900 ppm active compound solution and 44.7 cm^2 internal surface, an area dose of 5 μg/cm^2 is achieved for homogeneous distribution.
After evaporation of the solvent, the tubes are populated with 5-10 adult cat fleas (Ctenocephalides felis), sealed with a perforated plastic lid and incubated in a horizontal position at room temperature and ambient humidity. After 48 h, the efficacy is determined. To this end, the test tubes are stood upright and the fleas are knocked to the floor of the tube. Fleas which remain motionless on the floor or move in an uncoordinated manner are considered to be dead or moribund.
An efficacy of 100% means that all fleas were dead or moribund. 0% efficacy means that none of the fleas had been damaged.

With `Cn1nc(C(F)(F)F)c(C=NO)c1-n1cc(-c2ccc(Cl)c(C(=O)NC3CC3)c2)cn1` (mixture of isomers) [Ic-50] the logP [1] was 2.47.
`Cn1nc(C(F)(F)F)c(C=NO)c1-n1cc(-c2ccc(Cl)c(C(=O)NC3(C#N)CC3)c2)cn1` (mixture of isomers) [Ic-98] gave a logP [1] of 2.42.
With `Cn1nc(C(F)(F)C(F)(F)F)c(C(F)(F)F)c1-n1cc(-c2cc(C(=O)NC3(C#N)CC3)c(Cl)cc2F)cn1` [Ic-93] the efficacy in % ([2]; application rate 500 g/ha) was 100%.
Work on `Cn1nc(C(F)(F)F)c(C(=O)NC2CC2)c1-n1cc(-c2ccc(Cl)c(C(=O)NC3CC3)c2)cn1` [Ic-100] yielded a logP [1] of 2.31.
In the case of `Cn1nc(C(F)(F)F)c(C(=O)NC2CC2)c1-n1cc(-c2ccc(Cl)c(C(=O)NC3(C#N)CC3)c2)cn1` [Ic-101], the logP [1] is reported as 2.32.
`Cn1nc(C(F)(F)F)c(C=O)c1-n1cc(-c2ccc(Cl)c(C(=O)NC3(C#N)CC3)c2)cn1` [Ic-102] showed a logP [1] of 2.61.
`Cn1nc(C(F)(F)F)c(CCl)c1-n1cc(-c2ccc(Cl)c(C(=O)NC3CC3)c2)cn1` [Ic-114] showed a logP [1] of 3.12.
With `CN(C)CCNC(=O)c1cc(-c2cnn(-c3c(C(F)(F)F)c(C(F)(F)C(F)(F)F)nn3C)c2)ccc1Cl` [Ic-138] the “efficacy (dead or moribund fleas)” value ([3]; application rate 5 μg/cm^2) was 80%.
With `Cn1nc(C(F)(F)C(F)(F)F)c(C(F)(F)F)c1-n1cc(-c2ccc(Cl)c(C(=O)Nc3nn[nH]n3)c2)cn1` [Ic-144] the “efficacy (dead or moribund fleas)” value ([3]; application rate 1 μg/cm^2) was 100% and the “efficacy (dead or moribund fleas)” value ([3]; application rate 5 μg/cm^2) was 100%.
With `Cn1nc(C(F)(F)C(F)(F)F)c(C(F)(F)F)c1-n1cc(-c2ccc(Cl)c(C(=O)Nc3ccon3)c2)cn1` [Ic-145] the “efficacy (dead or moribund fleas)” value ([3]; application rate 1 μg/cm^2) was 100% and the “efficacy (dead or moribund fleas)” value ([3]; application rate 5 μg/cm^2) was 100%.
For `Cn1nc(C(F)(F)C(F)(F)F)c(C(F)(F)F)c1-n1cc(-c2ccc(Cl)c(C(=O)NCc3ncc[nH]3)c2)cn1` [Ic-146], the “efficacy (dead or moribund fleas)” value ([3]; application rate 1 μg/cm^2) was 80% and the “efficacy (dead or moribund fleas)” value ([3]; application rate 5 μg/cm^2) was 80%.
`Cn1nc(C(F)(F)C(F)(F)F)c(C(F)(F)F)c1-n1cc(-c2cc(C(=O)NC3CC3)c(F)c(S(N)(=O)=O)c2)cn1` [Ic-173] gave an efficacy in % ([2]; application rate 500 g/ha) of 100%.
Compound `Cn1nc(C(F)(F)C(F)(F)F)c(C(F)(F)F)c1-n1cc(-c2cncc(C(=O)NC3CC3)n2)cn1` [Ic-178] has an efficacy in % ([2]; application rate 100 g/ha) of 100%.
`Cn1nc(C(F)(F)C(F)(F)F)c(C(F)(F)F)c1-n1cc(-c2cncc(C(=O)NC3(C#N)CC3)n2)cn1` [Ic-179] gave an efficacy in % ([2]; application rate 500 g/ha) of 100%.
Work on `CSc1c(C(F)(F)C(F)(F)F)nn(C)c1-n1cc(-c2ccc(Cl)c(C(=O)NC3(C#N)CC3)c2)cn1` [Ic-194] yielded a logP [1] of 3.56.
Compound `Cn1nc(C(F)(F)C(F)(F)F)c(C(F)(F)F)c1-n1cc(-c2ccc(C(F)(F)F)c(C(=O)NC3CC3)c2)cn1` [Ic-196] has a logP [1] of 3.96.
`CCN(CC)C(=O)c1cc(-c2cnn(-c3c(C(F)(F)F)c(C(F)(F)C(F)(F)F)nn3C)c2)ccc1S(=O)(=O)NC1CC1` [Ic-197] showed a logP [1] of 4.39.
For `CN(C(=O)c1cc(-c2cnn(-c3c(C(F)(F)F)c(C(F)(F)C(F)(F)F)nn3C)c2)ccc1Cl)C1CC1` [Ic-199], the “efficacy (dead or moribund fleas)” value ([3]; application rate 1 μg/cm^2) was 100% and the “efficacy (dead or moribund fleas)” value ([3]; application rate 5 μg/cm^2) was 100%.
In the case of `Cn1nc(C(F)(F)C(F)(F)F)c(C(F)(F)F)c1-n1cc(-c2ccc(C(F)(F)F)c(C(=O)NC3(C#N)CC3)c2)cn1` [Ic-203], the logP [1] is reported as 3.88.
In the case of `CCCN(C(=O)c1cc(-c2cnn(-c3c(C(F)(F)F)c(C(F)(F)C(F)(F)F)nn3C)c2)ccc1Cl)C1(C#N)CC1` [Ic-204], the logP [1] is reported as 4.56.
`CCC(=O)N(C(=O)c1cc(-c2cnn(-c3c(C(F)(F)F)c(C(F)(F)C(F)(F)F)nn3C)c2)ccc1Cl)C1(C#N)CC1` [Ic-205] gave a logP [1] of 4.63.
In the case of `C=CCN(C(=O)c1cc(-c2cnn(-c3c(C(F)(F)F)c(C(F)(F)C(F)(F)F)nn3C)c2)ccc1Cl)C1(C#N)CC1` [Ic-206], the logP [1] is reported as 4.44.
Compound `CC(NC(=O)c1cc(-c2cnn(-c3c(C(F)(F)F)c(C(F)(F)C(F)(F)F)nn3C)c2)ccc1Cl)C1CC1` (centres unmarked) [Ic-207] has a logP [1] of 4.4.
For `CCN(C(=O)c1cc(-c2cnn(-c3c(C(F)(F)F)c(C(F)(F)C(F)(F)F)nn3C)c2)ccc1Cl)C1CC1` [Ic-211], the “efficacy (dead or moribund fleas)” value ([3]; application rate 1 μg/cm^2) was 100% and the “efficacy (dead or moribund fleas)” value ([3]; application rate 5 μg/cm^2) was 100%.
